Data taken from US9550792B2, “Polycyclic substituted pyrazole kinase activity inhibitors and use thereof” (priority 2013, dated 2017).
≈ marks a conversion by molar mass, not a printed value. Where two headings read alike, the source gives them in different places.

Experiments:
lung cancer cell H1299 = assay: Anti-tumor activity in vitro, MTT method; type: cell-based; conditions: Homo sapiens, read-out: H1299 (IC50/μM)
Phytophthora infestans = type: in vivo
Candida parapsilosis = assay: Antifungal activity, modified broth microdilution; type: cell-based; conditions: Lodderomyces parapsilosis; 48 hours at 35, approximately 50% reduction of growth
Method: (§1) The test microorganisms are maintained on Sabourahd Dextrose Agar slant at 4[…]. Singlet suspension of each microorganism is prepared by growing the yeast overnight at 27[…] on a rotating drum in yeast-nitrogen base broth (YNB) with amino acids (Difco, Detroit, Mich.), (pH 7.0) and 0.05 morpholine propanesulphonic acid (MOPS). […] The activity of the test compound is determined using a modified broth microdilution technique. […] Well 12 serves as a growth control. […] Inoculated plate is incubated for 48 hours at 35 °C. […] Minimal Cytolytic Concentration (MCC) is determined by subculturing all wells from the 96-well plate onto a Sabourahd Dextrose Agar (SDA) plate, incubating for 1-2 days at 35 °C, and then checking viability.

Cryptococcus neoformans = assay: Antifungal activity, modified broth microdilution; type: cell-based; conditions: Cryptococcus neoformans; 48 hours at 35, approximately 50% reduction of growth
Method: as §1

Candida tropicalis = assay: Antifungal activity, modified broth microdilution; type: cell-based; conditions: Candida tropicalis; 48 hours at 35, approximately 50% reduction of growth
Method: as §1

[1] = test system: Candida albicans - ATCC 36082; assay: Antifungal activity, modified broth microdilution; type: cell-based; conditions: Candida albicans, ATCC36082; 48 hours at 35, approximately 50% reduction of growth
Method: as §1

Aurora A = biological target: T1, Aurora A (Homo sapiens, UniProt O14965); assay: Inhibitory activity to Aurora A (FRET); type: biochemical; conditions: read-out: Aurora A inhibition % (1 × 10^−6 mol/L)
T1 construct: purchased
T1 sequence (O14965 1-403): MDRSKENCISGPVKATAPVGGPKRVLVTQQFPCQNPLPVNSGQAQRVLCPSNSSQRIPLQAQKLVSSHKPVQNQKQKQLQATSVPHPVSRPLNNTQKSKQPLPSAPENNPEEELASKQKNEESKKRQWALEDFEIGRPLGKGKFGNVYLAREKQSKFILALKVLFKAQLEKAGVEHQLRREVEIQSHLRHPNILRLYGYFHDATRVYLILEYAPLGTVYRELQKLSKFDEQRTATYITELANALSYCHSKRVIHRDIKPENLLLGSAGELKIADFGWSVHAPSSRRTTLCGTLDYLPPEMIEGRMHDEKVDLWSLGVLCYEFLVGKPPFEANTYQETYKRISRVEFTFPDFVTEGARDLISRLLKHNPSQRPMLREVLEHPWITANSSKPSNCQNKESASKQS
Method: The inhibitory activities of the synthesized compounds for Aurora A is determined by fluorescence resonance energy transfer (FRET) and were compared with the positive control drug so as to screen the compounds with better activities. Aurora A was purchased in the form of a kit or obtained through purification. Procedures: Aurora A is diluted to a suitable concentration with kinase diluent. The kinase reaction mixture contains Aurora A, peptide substrate, HEPES (pH7.5), BRIJ-35, MgCl2 and EDTA. Aurora A phospho-peptide substrate is used as the control of 100% phosphorylation and ATP-free as the control of 0% phosphorylation. After 1 h, the diluted Development Reagent A is added into the reaction system. Then the reaction is allowed to proceed for 1 h and then quenched with Stop Reagent. The excitation wavelength is 400 nm and the fluorescence intensity is detected at 445 nm (coumarin) and 520 nm (fluorescein). The inhibitions of the tested compounds are calculated according to the formula.

CDK2/A = biological target: T2, CDK2/A (Homo sapiens, UniProt P24941); assay: Inhibitory activity to CDK2 (FRET); type: biochemical; conditions: read-out: CDK2 inhibition % (1 × 10^−6 mol/L)
T2 construct: purchased
Method: CDK2/A was purchased in the form of a kit or obtained through purification.
Procedures: CDK2/A is diluted to a suitable concentration with kinase diluent. The kinase reaction mixture contains CDK2/A, peptide substrate, HEPES (pH7.5), BRIJ-35, MgCl2 and EDTA. CDK2 phospho-peptide substrate is used as the control of 100% phosphorylation and ATP-free as the control of 0% phosphorylation. After 1 h, the diluted Development Reagent A is added into the reaction system. Then the reaction is allowed to proceed for 1 h and then quenched with Stop Reagent. […] The inhibitions of the tested compounds are calculated according to the formula.

[2] = test system: colon cancer cell line HCT116; assay: Anti-tumor activity in vitro, MTT method; type: cell-based; conditions: Homo sapiens
[3] = test system: liver cancer cell line 7721; assay: Anti-tumor activity in vitro, MTT method; type: cell-based; conditions: 48 h, read-out: 7721 (IC50/μM)
[4] = test system: umbilical cord vein endothelium cell line HUVEC; assay: Anti-tumor activity in vitro, MTT method; conditions: Homo sapiens, 48 h, read-out: HUVEC (IC50/μM)
Method: (§2) MTT method: the dehydrogenase associated with NADP in the mitochondria of living cell is capable of reducing exogenous MTT into insoluble bluish violet crystal (Formazan), which is precipitated in the cell. […] DMSO or Triple liquid (10% SDS-5% isobutanol-0.01 mol/L HCl) is used to dissolve the crystal in the cell. The OD determined at 570 nm by a microplate reader can reflect the amount of the living cell indirectly.
(§3) The crystal is dissolved with DMSO and the detection is performed on a microplate reader.

[5] = test system: resistant breast cancer cell line MCF-7; assay: Anti-tumor activity in vitro, MTT method; conditions: Homo sapiens, MCF7, 48 h, read-out: Resistant MCF7 (IC50/μM)
Method: as §2, §3

[6] = test system: liver cancer cell line HEPG2; assay: Anti-tumor activity in vitro, MTT method; conditions: Homo sapiens, HepG2, 48 h, read-out: HEPG2 (IC50/μM)
Method: as §2, §3

[7] = test system: breast cancer cell line MCF-7; assay: Anti-tumor activity in vitro, MTT method; conditions: Homo sapiens, MCF7, 48 h, read-out: MCF7 (IC50/μM)
Method: as §2, §3

leukemia cell line NB4 = assay: Anti-tumor activity in vitro, MTT method; conditions: 48 h, read-out: NB4 (IC50/μM)
Method: as §2, §3

[8] = test system: stomach cancer cell line MGC803; assay: Anti-tumor activity in vitro, MTT method; conditions: Homo sapiens, MGC-803, 48 h, read-out: MGC803 (IC50/μM)
Method: as §2, §3

[9] = test system: breast cancer cell line MDA231; assay: Anti-tumor activity in vitro, MTT method; conditions: Homo sapiens, MDA-MB-231, 48 h, read-out: MDA231 (IC50/μM)
Method: as §2, §3

[10] = test system: lung cancer cell line A549; assay: Anti-tumor activity in vitro, MTT method; conditions: Homo sapiens, A549, 48 h, read-out: A549 (IC50/μM)
Method: as §2, §3

leukemia cell line K562 = assay: Anti-tumor activity in vitro, MTT method; conditions: Homo sapiens, K562, 48 h, read-out: K562 (IC50/μM)
Method: as §2, §3

[11] = test system: stomach cancer cell line BSG823; assay: Anti-tumor activity in vitro, MTT method; conditions: 48 h, read-out: BSG823 (IC50/μM)
Method: as §2, §3

S180 grafting tumor = assay: Inhibition to S180 grafting tumor in animal; type: in vivo, ICR mouse; conditions: 15 mg/kg intravenously once a day, 7 administrations
Method: ICR mouse was inoculated with solid tumor according to tumor grafting process (tumor piece was weighed under sterile condition, homogenized with glass tissue homogenizer, placed within a sterile container, to which was added physiological saline to prepare 1:3 cell suspension. The container was placed on ice and aspirated and the cells were mixed homogeneously before each aspiration. Each mouse was inoculated subcutaneously 0.2 mL at right fore axilla). […] The mice were administered intravenously, once a day and 7 administrations in total. The administration volume was 0.4 ml/20 g. The mice bearing tumor were sacrificed 8 days after inoculation (d8). The tumor tissue was separated and weighed. The data was analyzed with statistics method (t-test).
Dose setting: 5 groups in total.

[12] = HCT-116, 48 h, read-out: HCT-116 (IC50/μM)
[13] = HCT-116, MTT, 48 h, first cell table, read-out: HCT-116 (IC50/μM)

With CN1CCN(Cc2ccc(NC(=O)c3n[nH]cc3Nc3nccc4ccsc34)cc2)CC1 [Compound I-29, 4-(7-thieno[2,3-c]pyridylamino)-N-(4-((4-methyl-1-piperazinyl)methyl)phenyl)-1H-3-pyrazolecarboxamide] the IC50 (lung cancer cell H1299; NCI-H1299, 48 h) was 3.84 µM, the “Severity of tomato leaf blight” value (Phytophthora infestans; 0.0001 (unit not given)) was “+++ (40-60% blight)” and the “Severity of tomato leaf blight” value (Phytophthora infestans; 0.001 (unit not given)) was “++ (15-40% blight)”. The “Severity of tomato leaf blight” value (Phytophthora infestans; 0.01 (unit not given)) was “+ (0-15% blight)”, the “Severity of tomato leaf blight” value (Phytophthora infestans; 0.1 (unit not given)) was “−” and the melting point was 274 to 276 °C. It also gave an MIC (Candida parapsilosis) of 6.47 µg/mL (≈ 14.5 µM), an MIC (Cryptococcus neoformans) of 7.81 µg/mL (≈ 17.4 µM) and an MIC (Candida tropicalis) of 4.21 µg/mL (≈ 9.41 µM). For the same compound, the MIC [1] was 2.73 µg/mL (≈ 6.1 µM), the inhibition at 1 µM (Aurora A) was 64.4% and the inhibition at 1 µM (CDK2/A) was 76.2%. It also gave an IC50 [2, 12] of 0.26 µM and an IC50 [3] of 4.95 µM.

O=C(Nc1ccc(CN2CCOCC2)cc1)c1n[nH]cc1Nc1ncnc2occc12 [Compound I-22, 4-(4-furo[2,3-d]pyrimidinylamino)-N-(4-((4-morpholinyl)methyl)phenyl)-1H-3-pyrazolecarboxamide] showed an IC50 (lung cancer cell H1299; NCI-H1299, MTT, 48 h) of 10.3 µM, a melting point greater than 280 °C and an inhibition at 1 µM (Aurora A) of 48.5%. For the same compound, the inhibition at 1 µM (CDK2/A) was 66.3%, the IC50 [2, 13] was 8.63 µM and the IC50 ([3]; MTT) was 18.1 µM.

In the case of CN1CCN(Cc2ccc(NC(=O)c3n[nH]cc3Nc3ccnc4ccoc34)cc2)CC1 [Compound I-39, 4-(7-furo[3,2-b]pyridylamino)-N-(4-((4-methyl-1-piperazinyl)methyl)phenyl)-1H-3-pyrazolecarboxamide], the IC50 (lung cancer cell H1299; NCI-H1299, MTT, 48 h) is reported as greater than 200 µM, the melting point is reported as 268 to 270 °C and the inhibition at 1 µM (Aurora A) is reported as 42.1%. The inhibition at 1 µM (CDK2/A) was 37.6%, the IC50 [2, 13] was greater than 200 µM and the IC50 ([3]; MTT) was greater than 200 µM.

Compound O=C(NC1CCNCC1)c1n[nH]cc1NC(=O)c1c(Cl)cccc1Cl [AT-7519, reference compound] has an IC50 [4] of 5.67 µM, an IC50 [5] of 22.1 µM and an IC50 [6] of 53.6 µM. The IC50 (lung cancer cell H1299; NCI-H1299, 48 h) was 9.32 µM, the IC50 [7] was 2.04 µM and the IC50 (leukemia cell line NB4) was 0.62 µM. It also gave an IC50 [8] of 1.93 µM, an IC50 [9] of 2.58 µM and an IC50 [10] of 53.5 µM. It also gave an inhibition at 1 µM (Aurora A) of 38%, an IC50 ([2]; HCT-116, 48 h, read-out: HCT116 (IC50/μM)) of 2.63 µM and an IC50 [2, 12] of 21.2 µM. The IC50 [3] was greater than 200 µM, the IC50 (leukemia cell line K562) was 3.24 µM and the IC50 [11] was 16.7 µM. For the same compound, the “Body weight After administration” value (S180 grafting tumor) was 23.83 ± 3.39 g, the Tumor inhibition (S180 grafting tumor; d8) was 32.45% and the Tumor weight (S180 grafting tumor; d8) was 0.80 ± 0.27 g.
